Assay results reported in patent US5071839A, “Safe pharmaceutical composition for decreasing side effects of antiviral drugs and increasing the immune function (SDI) II” (priority 1987, dated 1991).
Like-named read-outs stand apart in the source and are kept apart here.

How the values were obtained:
[1] = cited from earlier work
YAC-1 or EAC cells = experiment: Natural killer cell cytotoxicity, 51Cr release from YAC-1 or EAC cells (Example 5, Table 1); assay type: cell-based, mice; conditions: C: control, only antiviral drug (80 μg/ml); E:T 100:1
Protocol: (§1) Male mice weight 18-20 g were used in the experimetns. The dosage of SDI is 5-10 mg/kg injected intraperitoneally. The normal mice were injected with same volume of normal saline. These injections were repeated daily for 3-5 days. On the last say, both antiviral drug and antiviral drug+SDI group were injected interaperitoneally.
Natural Killer (NK) Cells can destrou many viruse. NK cells may be important in limiting early spread of virus, also Natural Killer Cytotoxicity is effective antiviral agent. NK cell cytoxicity was tested by chromium release which assay using ^51 Cr-labelled YAC-1 or EAC cell line as targer cells. […] The effector cell to target cell (E:T) radio is 100:1. After the incubation the tuber were spun, the amount of ^51 Cr-released in 0.1 ml supernatant was counted by r-scintillation counter. Percent cytotoxicity was calculated from the following formula: [formula]

T lymphocytes = experiment: Formation of rosette (T lymphocytes with sheep erythrocytes) (Example 9, Table 5); assay type: cell-based, mice; conditions: C: control, only antiviral drug (80 μg/ml)
Protocol: as §1
a. Obtain venous blood in heparin (10 IU ml^-1) and perform a total and differential leucocyte count.
b. Isolate lymphocyte fraction. Count vaiable lymphocytes calculate and record total yield. Adjust to 5×10^5 lymphocytes ml^-1.
c. Wash sheep erythrocytes by centrifugation (400 g for 10 minutes at room temperature) and ajust to a 2.5% v/v suspension in PBS.
d. Mix 0.1 ml of the lymphocyte suspension with 0.1 ml of sheep erythrocytes and centrifuge at 225 g for 5 minutes at room temperature.
e. Incubate for 2 hours at 4° C.
f. Add 50 μl of fetal bovine serum (FBS).
g. Resuspend cell mixture by gently tapping the tube and pipette a sample into a haemocytomer.
h. Count 200 lymphocytes and determine the percentage of cell with 3 or more erythrocytes attached. (Three are T lymphocytes).
i. Calculate the absolute number of T lymphocytes ml^-1 of original blood.

peritoneal macrophage = experiment: Phagocytosis of peritoneal macrophage of mice, 51Cr chick red blood cells (Example 10, Table 6); assay type: cell-based; conditions: C: control, only antiviral drug (80 μg/ml)
Protocol: as §1
Count the number of macrophages in the peritoneal exudate of mice and adjust to 1×10^7 cell/ml with normal saline. Add 0.1 ml of the macrophage suspension. i.e. 1×10^6 cells to each well on the plastic plate for test. Lable the chick red blood cell with ^51 Cr. Suspend the labelled chick red blood cell and adjust to 1.5×10^8/ml, add 0.1 ml, i.e. 1.5×10^7, to each well. Incubate at 37° C. for 30 minutes. Wash thoughly to remove the free chick red blood cells. Count each well in a γ-counter.

[2] = system: bone marrow stem cells (CFU-S); experiment: Spleen colony assay, bone marrow stem cells (CFU-S) (Example 6, Table 2); assay type: in vivo, mice; conditions: C: control, only antiviral drug (80 μg/ml)
Protocol: as §1
Effects of SDI on hemopoietic system were investigated.

white blood cells = experiment: White blood cells assay (Example 8, Table 4); assay type: in vivo, mice; conditions: C: control, only antiviral drug (80 μg/ml); 7 days
Protocol: as §1
Action of SDI II and antiviral drug on white blood cells was investigated by means of white blood cells assay. […] Time of treatment is 7 days.

lymphocytes = experiment: Lymphoblastoid transformation test, 3H-TdR (Example 7, Table 3); assay type: cell-based, mice; conditions: C: control, only antiviral drug (80 μg/ml)
Protocol: as §1
1. Reagents and conditions for cell culture
a. Culture media--RPMI 1640, madium 199 minimal essential medium (Eagle).
b. 37° C. to maintain the pH of the medium at 7.31.
c. Serum--generally 15-20% fetal bovine serum was incorporated.
d. Gaseous phase 5% CO2 in air;
e. Cell concentration--generally 1-2×10^6 /ml;
f. Stimulants--20 μg/ml for phytoagglutinin containing polysaccharide (PHA-M) or 10 μg/ml for polysaccharide-free purified phytoagglutinin (PHA-P).
2. Measured by liquid scintillation
a. The conditions of cell culture are same as above. ^3 H-TdR was added after 48 hours of incubation at a final concentration of 2 μCi/ml and continue the incubation for 24 hours.
b. Wash the cells twice with cold normal saline and the erythrocytes were lysed by addition of distilled-water and equal volume of 3.6% NaCi was then added. The intact lymphocytes and add 2 ml of 10% trichloroacetic acid to precipitate the protein. Wash twice with normal saline. Add 2 ml of ethanol: ether (1:1) to wash once. 0.2 ml of formic acid was then added for digestion till the precipitate was dissolved.
c. Add 4 ml of scintillation fluid to 0.1 ml of the final sample and count in a liquid scintillation counter.

DNA synthesis = conditions: cited from earlier work

Compound	side effects (marrow, blood) ([1]; various degree)	% Cytotoxicity (NK cells) (YAC-1 or EAC cells) [%]	Rate of formed rosette (T lymphocytes) [%]	CPM (phagocytosis of peritoneal macrophage) (peritoneal macrophage) [CPM]	Mean CFU ± SD [2]	White blood cells (white blood cells) [mL⁻¹]	CPM (lymphoblastoid transformation) (lymphocytes) [CPM]	DNA synthesis (DNA synthesis)	side effects (marrow, blood) ([1]; in vivo)
Nc1nc2c(ncn2COCCO)c(=O)[nH]1 [ACV, Acyclovir]	bone-marrow suppression, megaloblastic anemia and recreasing total white blood cells								
Nc1ncn([C@@H]2O[C@H](CO)[C@@H](O)[C@H]2O)c(=O)n1 [AZC]		11.2	19.8	401	3.1	3800	441		
Nc1ncn([C@H]2C[C@H](O)[C@@H](CO)O2)c(=O)n1 [AZCdR, 5'-Aza-2'-deoxycytidine]	bone-marrow suppression, megaloblastic anemia and recreasing total white blood cells								
Cc1cn([C@H]2C[C@H](N=[N+]=[N-])[C@@H](CO)O2)c(=O)[nH]c1=O [AZT, 3'-Azido-3'-deoxythymidine]	bone-marrow suppression and megaloblastic anemia, and decreasing total white blood cells							blocker of DNA synthesis	
O=c1cnn([C@@H]2O[C@H](CO)[C@@H](O)[C@H]2O)c(=O)[nH]1 [AZU, 6-Azauridune]	bone-marrow suppression, megaloblastic anemia and recreasing total white blood cells								
Nc1ccn([C@@H]2O[C@H](CO)[C@@H](O)[C@@H]2O)c(=O)n1 [Ara-C, Cytarabine]	bone-marrow suppression, megaloblastic anemia and recreasing total white blood cells		23.7	512	3.8	4200	654		
N=c1ccn2c(n1)O[C@H]1[C@H](O)[C@@H](CO)O[C@H]12 [C.C., Cyclocytidine]	bone-marrow suppression, megaloblastic anemia and recreasing total white blood cells								
O=P1(N(CCCl)CCCl)NCCCO1 (centres unmarked) [CP, Cyclophosphamide]	bone-marrow suppression, megaloblastic anemia and recreasing total white blood cells	20.7	20.7	481	4.0	5300	620		
Nc1ncnc2c1ncn2[C@H]1CC[C@@H](CO)O1 [DDA, 2',3'-Dideoxyadenoside]	bone-marrow suppression, megaloblastic anemia and recreasing total white blood cells	18.0	22.4	489	4.2	4200	502		
Nc1ccn([C@H]2CC[C@@H](CO)O2)c(=O)n1 [DDC, 2',3'-Dideoxycytidine]									bone-marrow suppression, megaloblastic anemia and recreasing total white blood cells
O=c1[nH]c(=O)n([C@H]2C[C@H](O)[C@@H](CO)O2)cc1I [IDU, Idoxuridine]									bone-marrow suppression, megaloblastic anemia and recreasing total white blood cells
NC(=O)c1ncn([C@@H]2O[C@H](CO)[C@@H](O)[C@H]2O)n1 [Rib, Ribofuranosyl-Trazole-Carboxamide]	bone-marrow suppression, megaloblastic anemia and recreasing total white blood cells	22.3	28.7	540	4.2	4900	763		
